Values quoted from earlier work as cited in PMC5572576 (The Lancet. Oncology, 2017).
Read-outs that look alike come from different tables or passages of the source.

Key:
patients with R/R AML [1] = conditions: cited from earlier work
[2] = test system: patients with newly diagnosed AML aged <60 years; conditions: added to intensive chemotherapy; cited from earlier work
patients with R/R AML [3] = conditions: cited from earlier work; remark: listed apart in the source

Structure (SMILES): CC(C)(C)c1cc(NC(=O)Nc2ccc(-c3cn4c(n3)sc3cc(OCCN5CCOCC5)ccc34)cc2)no1 [quizartinib]
- Median OS (patients with R/R AML [1]; FLT3-ITD subgroup): 18 weeks
- Median OS (patients with R/R AML [1]; entire study population): 14 weeks

Structure (SMILES): CNC(=O)c1cc(Oc2ccc(NC(=O)Nc3ccc(Cl)c(C(F)(F)F)c3)cc2)ccn1 [sorafenib]
- 3-year event-free survival (EFS) rate [2]: 40%

Structure (SMILES): CO[C@@H]1[C@H](N(C)C(=O)c2ccccc2)C[C@H]2O[C@]1(C)n1c3ccccc3c3c4c(c5c6ccccc6n2c5c31)C(=O)NC4 [midostaurin]
- CR (patients with R/R AML [3]): CR was not achieved
- Patients with a reduction in blast counts (patients with R/R AML [3]; patients with FLT3WT): 42%
- Patients with a reduction in blast counts (patients with R/R AML [3]; patients with FLT3 mutations): 71%
